These results are taken from patent US9260476B2, “RNA targeting compounds and methods for making and using same” (The Research Foundation for The State University of New York, priority 2007, dated 2016).

Assay [1] concerns r(CUG)^exp nuclear foci in HeLa cells transfected with the DM1 mini-gene. Kind of assay: Fluorescence in situ hybridization (FISH) and confocal microscopy of nuclear foci. Format: cell-based. The following applies: 25 μM, 16-24 h. An excerpt: Another hallmark of DM1-affected cells is the presence of nuclear foci that consist of r(CUG)^exp-protein complexes (26). Therefore, a fluorescence in situ hybridization assay (FISH) was used to probe if 4K-2-DR9 can decrease the occurrence of nuclear foci. HeLa cells were transfected with the DM1 mini-gene and treated with 4K-2-DR9. The cells were then probed with a 2′-O-methyl oligonucleotide labeled with Cy3 that is complementary to r(CUG)^exp. The cells were then imaged via confocal microscopy (FIG. 12). In the absence of 4K-2-DR9, multiple nuclear foci are observed in each cell, which correspond to r(CUG)^exp-protein complexes (FIG. 12a). […] Since 4K-2-DR9 is labeled with fluorescein, cellular permeability and localization can also be imaged.
HeLa cells were grown as monolayers in Mat-Tak glass-bottomed, 96-well plates. After the cells reached 90-95% confluency, they were transfected with 200 ng of a plasmid encoding a DM1 mini-gene (21) using Lipfoectamine 2000 per the manufacturer's standard protocol. […]
Another hallmark of DM1 is the presence of nuclear foci caused by aggregates of r(CUG)^exp and various proteins including MBNL1.(26-31) Thus, it was determined if nH-4 compounds can disrupt formation of nuclear foci. […] Fluorescence in situ hybridization (FISH) was then used to visualize the r(CUG)^exp. […]

Another assay relates to r(CUG)^exp-MBNL1 complex. The following applies: previously reported (13); cited from earlier work.
For the next assay, the target named is r(CUG)^exp. The following applies: previously reported (13); cited from earlier work.

As to `CCCN(CC(=O)N(CCC)CC(=O)N(CCC)CC(=O)N(CCC)CC(=O)N(CC(=O)N(CCC)CC(=O)N(CCC)CC(=O)N(CCC)CC(=O)N(CCC)CC(=O)N(CC(N)=O)Cc1cn(CCCNC(=O)CCCOc2cccc(-c3nc4ccc(-c5nc6ccc(N7CCN(C)CC7)cc6[nH]5)cc4[nH]3)c2)nn1)Cc1cn(CCCNC(=O)CCCOc2cccc(-c3nc4ccc(-c5nc6ccc(N7CCN(C)CC7)cc6[nH]5)cc4[nH]3)c2)nn1)C(=O)CNCc1cn(CCCNC(=O)CCCOc2cccc(-c3nc4ccc(-c5nc6ccc(N7CCN(C)CC7)cc6[nH]5)cc4[nH]3)c2)nn1` [Compound 3H-4], in assay [1], the “disruption of nuclear foci” value is “the number of foci is decreased and the foci are more diffuse”. For the same compound, the IC50 – broadly, the midpoint of a concentration-inhibition curve – with r(CUG)^exp-MBNL1 complex was 410 nM. Further, at r(CUG)^exp, the Kd (commonly the constant that tells how readily two partners part at equilibrium) is 65 nM.
